# Read-outs that look alike come from different tables or passages of the source.
# Assays:
# [1] = tested on: M. tuberculosis H37RV ATCC 27294; assay: In vitro growth inhibition assay, BACTEC 460 TB system; assay type: cell-based, Mycobacterium tuberculosis
# M. kansasii = assay: In vitro agar dilution assay (MIC); assay type: cell-based, Mycobacterium kansasii; conditions: n = 2 strains tested
# [2] = tested on: clinical isolates generally susceptible to common tubercular agents; assay: microbe, parasite or virus in culture; assay type: cell-based, Mycobacterium tuberculosis; conditions: for MIC M. tuberculosis Sensitive (n = 20): clinical isolates, n = 20 strains tested
# [3] = tested on: M. avium-intracellular Complex; assay: In vitro agar dilution assay (MIC); assay type: cell-based, Mycobacterium avium-intracellular complex; conditions: for MIC M. avium-intracellulare Complex (n = 10): n = 10 strains tested
# M. fortuitum = assay: In vitro agar dilution assay (MIC); assay type: cell-based, Mycobacterium fortuitum; conditions: n = 2 strains tested
# [4] = tested on: M. Tuberculosis strain (H37RV); assay: In vitro agar dilution assay (MIC, NCCLS-M24-T2); assay type: cell-based, Mycobacterium tuberculosis; conditions: for MIC: Mycobacterium tuberculosis, ATCC 27294 / H37Rv, read-out: MIC against M. tuberculosis (H37RV ATCC27294)
# [5] = tested on: M. Tuberculosis strain (H37RV); conditions: Janssen WO2004/011436; cited from earlier work
# [6] = agar dilution, Middlebrook 7H10
smiles,measurement,setting,value
COc1nc2ccc(Br)cc2cc1C(c1ccccc1)n1cccn1 (racemic),melting point,,142 to 144 °C
CC(c1cc(F)ccc1Oc1nc2ccc(-n3cc(-c4ccccc4)nn3)cc2cc1Cc1ccccc1)n1ccnc1 (stereo not drawn),melting point,,118 to 120 °C
COc1cccc(NC(=O)Nc2ccc3nc(Oc4ccc(F)cc4C(C)O)c(Cc4ccccc4)cc3c2)c1 (stereo not drawn) [Example 26],"mark “a” at the serial number (99% inhibition at <4 μg/ml), Tables 2-4",[1],26a (Compounds marked with “a” have shown 99% inhibition at <4 μg/ml)
same,MIC M. kansasii (n = 2),M. kansasii,<4.0 µg/mL
same,MIC M. tuberculosis Sensitive (n = 20),[2],<3.125 µg/mL
same,MIC M. avium-intracellulare Complex (n = 10),[3],<4.0 µg/mL
same,MIC M. fortuitum (n = 2),M. fortuitum,<4.0 µg/mL
same,MIC against M. tuberculosis (H37RV ATCC27294),[4]; [6],<3.125 µg/mL
"NNC(=O)c1ccncc1 [Isoniazid, reference compound]",MIC,"M. kansasii; Mycobacterium kansasii, read-out: MIC M. kansasii (n = 2)",> 16 µg/mL
same,MIC,"[2]; Mycobacterium tuberculosis, read-out: MIC M. tuberculosis Sensitive (n = 20)",0.25 µg/mL
same,MIC,"[3]; Mycobacterium, read-out: MIC M. avium-intracellulare Complex (n = 10)",> 16 µg/mL
same,MIC,"M. fortuitum; Mycolicibacterium fortuitum, read-out: MIC M. fortuitum (n = 2)",> 16 µg/mL
same,MIC,[4]; [6],0.25 µg/mL
COC(=O)C(C(=O)N1CCOCC1)C(c1ccccc1)c1cc2cc(Br)ccc2nc1OC (stereo not drawn) [Example 1] [listing 1 of 2 here],melting point,,206 to 208 °C
CC(c1cc(F)ccc1Oc1nc2ccc(-n3cc(-c4ccccc4)nn3)cc2cc1Cc1ccccc1)n1ccnc1 (stereo not drawn) [Example 23],"mark “a” at the serial number (99% inhibition at <4 μg/ml), Tables 2-4",[1],23a (Compounds marked with “a” have shown 99% inhibition at <4 μg/ml)
same,MIC M. kansasii (n = 2),M. kansasii,<4.0 µg/mL
same,MIC M. tuberculosis Sensitive (n = 20),[2],<3.125 µg/mL
same,MIC M. avium-intracellulare Complex (n = 10),[3],<4.0 µg/mL
same,MIC M. fortuitum (n = 2),M. fortuitum,<4.0 µg/mL
same,MIC against M. tuberculosis (H37RV ATCC27294),[4]; [6],<3.125 µg/mL
COC(=O)C(C(=O)N1CCOCC1)C(c1ccccc1)c1cc2cc(Br)ccc2nc1OC (stereo not drawn) [Example 1] [listing 2 of 2 here],melting point,,187.5 to 189.5 °C
CC(O)c1cc(F)ccc1Oc1nc2ccc(NC(=O)Nc3cccc([N+](=O)[O-])c3)cc2cc1Cc1ccccc1 (stereo not drawn) [Example 31],"mark “a” at the serial number (99% inhibition at <4 μg/ml), Tables 2-4",[1],31a (Compounds marked with “a” have shown 99% inhibition at <4 μg/ml)
same,MIC M. kansasii (n = 2),M. kansasii,>8.0 µg/mL
same,MIC M. tuberculosis Sensitive (n = 20),[2],<6.25 µg/mL
same,MIC M. avium-intracellulare Complex (n = 10),[3],>8.0 µg/mL
same,MIC M. fortuitum (n = 2),M. fortuitum,>8.0 µg/mL
same,MIC against M. tuberculosis (H37RV ATCC27294),[4]; [6],<3.125 µg/mL
"CO[C@H]1/C=C/O[C@@]2(C)Oc3c(C)c(O)c4c(O)c(c(/C=N/N5CCN(C)CC5)c(O)c4c3C2=O)NC(=O)/C(C)=C\C=C\[C@H](C)[C@H](O)[C@@H](C)[C@@H](O)[C@@H](C)[C@H](OC(C)=O)[C@@H]1C [Refampin, Rifampicin, reference compound]",MIC,[4],0.25 µg/mL
CC(O)c1cc(F)ccc1Oc1nc2ccc(NC(=O)Nc3cccc([N+](=O)[O-])c3)cc2cc1Cc1ccccc1 (stereo not drawn),melting point,,217 to 219 °C
COc1nc2ccc(Br)cc2c2c1C(C)(OCC(O)Cn1ccc(-c3ccc(C(F)(F)F)cc3)n1)c1ccccc1-2 (stereo not drawn),melting point,,65 to 67 °C
COc1nc2ccc(Br)cc2cc1C(c1ccccc1)n1ccnc1 (racemic),melting point,,161 to 162 °C
COc1nc2ccc(Br)cc2cc1C(c1ccccc1)[C@@](O)(CCN(C)C)c1cccc2ccccc12 (stereo partly drawn) [Example R207910],MIC value against the M. Tuberculosis strain (H37RV),[5],0.07 µg/mL
COc1nc2ccc(Br)cc2cc1C(Nc1ccc2oc(=O)ccc2c1)c1ccccc1 (racemic),melting point,,88 to 89 °C
ON=C1c2ccccc2-c2c1c(N1CCN(c3ccccn3)CC1)nc1ccc(Br)cc21 [Example 134],"mark “a” at the serial number (99% inhibition at <4 μg/ml), Tables 5A-N, 6-10",[1],134a (Compounds marked with “a” have shown 99% inhibition at <4 μg/ml)
same,MIC M. kansasii (n = 2),M. kansasii,>8.0 µg/mL
same,MIC M. tuberculosis Sensitive (n = 20),[2],<6.25 µg/mL
same,MIC M. avium-intracellulare Complex (n = 10),[3],<6.25 µg/mL
same,MIC M. fortuitum (n = 2),M. fortuitum,>8.0 µg/mL
same,MIC against M. tuberculosis (H37RV ATCC27294),[4]; [6],<6.25 µg/mL
